Measurements as given in patent US20050191348A1 (priority 2004, published 2005).

Experiments:
sAPPα [1] = assay: sAPPα release into medium of PC12 cells; assay type: cell-based, rat; conditions: PC12, 0.1, 1 and 10 μM, 3 h
Experimental: (§1) For the experiments, cells were seeded (2×10^6) onto 100-mm plates (for SH-SY5Y cells) or T75 flasks (for PC12 cells) in culture medium supplemented with full serum for 48 h. The cells were replaced with fresh medium containing 0.5% FCS for an additional 24 h (subconfluent culture), and then the experiments were performed in fresh medium containing 0.5% FCS for the indicated time periods at 37° C. After incubation with various drugs, the conditioned media were collected, centrifuged at 3500 g (10 min, 4° C.) to remove cell debris, and the cleared supernatants were concentrated 10-fold by lyophilization.
(vii) Determination of sAPP. […] Immunoreactivity was detected using anti-mouse IgG-conjugated with HRP and an enhanced chemiluminescence method (Amersham, Pharmacia Biotech, UK). Blots were developed for different times to span a linear range of response, and the relative intensity of immunoreactive bands on the exposed films was quantified by computer-assisted densitometry program (Quantity One, Bio-Rad, Hercules, Calif., USA).
We further characterized, in detail, the effect of rasagiline on APP processing and the signaling pathways that are involved. Thus, SH-SY5Y neuroblastoma cells were incubated for 3 h without or with increasing concentrations of rasagiline (0.1, 1 and 10 μM), and sAPPα was measured in the media as described in Materials and Methods. […]

PC12 cells = assay: Cell death under serum deprivation (apoptotic cell death detection ELISA), PC12; assay type: cell-based, rat; conditions: PC12, 24 h serum deprivation, significant at 1 and 10 μM
Experimental: Two different neuronal cell lines were used: the rat PC12 and the human neuroblastoma SH-SY5Y cells.
PC12 cells, originated from rat pheochromocytoma, were grown to confluence in T75 flasks containing DMEM (1000 mg/l glucose) and supplemented with 5% FCS, 10% horse serum, and a mixture of 1% of penicillin/streptomycin/nystatin.
Cell cultures were incubated at 37° C. in a humid 5% CO2-95% air environment. For cell viability assays, cells were treated with various drugs in serum free media containing 0.1% BSA.
In order to test cell viability, PC12 cells and SH-SY5Y neuroblastoma cels were incubated under serum deprivation and were untreated or treated with rasagiline (0.1. 1 or 10 μM) for 24 hours.

sAPPα [2] = assay: sAPPα release into medium of SH-SY5Y neuroblastoma cells; assay type: cell-based, human; conditions: SH-SY5Y, 0.1, 1 and 10 μM, 3 h, versus untreated cells
Experimental: as §1
(vii) Determination of sAPP. Protein concentrations of cell lysates were assayed using Bradford reagent (Sigma Chemical). Equal amounts of volumes of conditioned medium, standardized to lysate protein, were subjected to […], using either the MAbs 22C11 or 6E10 in 50 mM Tris-HCl, pH 7.4, 150 mM NaCl, containing 0.05% Tween 20 and 1% BSA. Immunoreactivity was detected using anti-mouse IgG-conjugated with HRP and an enhanced chemiluminescence method (Amersham, Pharmacia Biotech, UK). Blots were developed for different times to span a linear range of response, and the relative intensity of immunoreactive bands on the exposed films was quantified by computer-assisted densitometry program (Quantity One, Bio-Rad, Hercules, Calif., USA).
It was of interest to determine whether rasagiline and other propargylamine-containing drugs also regulate APP processing. For this purpose, SH-SY5Y neuroblastoma cells were incubated for 3 h without or with 1 μM of various drugs (TV3326 and its S-isomer TV3279, rasagiline and its S-isomer TVP1022, selegiline, aminoindan), and sAPPα was measured in the media as described in Materials and Methods.
We further characterized, in detail, the effect of rasagiline on APP processing and the signaling pathways that are involved. Thus, SH-SY5Y neuroblastoma cells were incubated for 3 h without or with increasing concentrations of rasagiline (0.1, 1 and 10 μM), and sAPPα was measured in the media as described in Materials and Methods.
For the sAPPα release, SH-SY5Y neuroblastoma cells or PC12 cells were incubated for 3 h without or with increasing concentrations of propargylamine (0.1, 1 and 10 μM), and sAPPα was measured in the media as described in Materials and Methods.

rat brain MAO-B = target: T1, rat brain MAO-B (Rattus norvegicus, UniProt P19643); assay: In vitro inhibition of rat brain MAO-B; assay type: biochemical
T1 construct: from tissue; host or cells: rat brain homogenate
T1 sequence (P19643 1-520): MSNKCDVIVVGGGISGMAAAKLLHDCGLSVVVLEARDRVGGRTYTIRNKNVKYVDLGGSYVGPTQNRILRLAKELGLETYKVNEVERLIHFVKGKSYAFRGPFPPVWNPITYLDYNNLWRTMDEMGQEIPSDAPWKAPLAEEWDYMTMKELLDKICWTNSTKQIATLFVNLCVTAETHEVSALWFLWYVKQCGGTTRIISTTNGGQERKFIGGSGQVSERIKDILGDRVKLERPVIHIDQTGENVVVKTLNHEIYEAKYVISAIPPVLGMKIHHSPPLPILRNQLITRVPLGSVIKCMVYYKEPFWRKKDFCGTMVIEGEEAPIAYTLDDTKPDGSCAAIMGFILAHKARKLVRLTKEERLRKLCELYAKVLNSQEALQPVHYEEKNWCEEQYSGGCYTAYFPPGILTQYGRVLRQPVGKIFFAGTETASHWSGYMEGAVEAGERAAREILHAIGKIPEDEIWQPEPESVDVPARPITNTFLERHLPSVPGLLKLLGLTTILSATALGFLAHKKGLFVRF
Experimental: To determine the activity of MAO-A and MAO-B, the test compound is added to a suitable dilution of the enzyme preparation from rat brain (70 μg protein for MAO-B and 150 μg MAO-A assay) in 0.05 M phosphate buffer (pH 7.4). Tthe mixture is incubated together with […], a specific inhibitor of MAO-B (for determination of MAO-A) or with […], a specific inhibitor of MAO-A (for determination of MAO-B). Incubation is carried for 1 h at 37° C. before addition of ^14C-5-hydroxytryptamine binoxalate ([…]), for determination of MAO-A, or ^14C-phenylethylamine ([…]), for determination of MAO-B, and incubation is continued for 30 min or 20 min, respectively. The reaction is stopped with 2 M ice-cold citric acid, and the metabolites are extracted and determined by liquid-scintillation counting in cpm units.
In another experiment, the in vitro inhibitory activity of propargylamine (P) against rat brain MAO-B was tested. Propargylamine (0.1, 1, 10, 100 μM) was added to buffer containing 0.05 μM clorgylin and was incubated with the tissue homogenate for 60 minutes at 37° C. before addition of ^14C-5-phenylethylamine. MAO-BA activity in presence of the test compound was expressed as a percentage of that in control samples. Mean values shown±SEM.

C#CCN [propargylamine]
sAPPα released into the medium (sAPPα [1]): significant, dose-dependent increase in sAPPα
cell death induced by serum deprivation (PC12 cells): significantly reduced cell death
sAPPα released into the medium (sAPPα [2]): significant, dose-dependent increase in sAPPα
MAO-B versus MAO-A selectivity (rat brain MAO-B; from IC50 values, rat brain): preferentially selective for MAO-B inhibition
IC50 (rat brain MAO-B; rat brain homogenate, 60 min preincubation at 37° C., 14C-phenylethylamine): ~10 µM
